Laboratory results: US12171766B2, “Methods of treating patients suffering from brain injury and methods of increasing the value of the extended Glasgow Outcome Scale of patients suffering from brain injury” (VERINOS OPERATIONS GMBH, priority 2021, dated 2024)

Assay: NOSTRA phase III trial: exposure control (pharmacokinetics), samples after end of infusion and 12 hours after end of infusion
Type: in vivo, human
Settings: TBI patients
Method: An exposure control was performed with samples collected after end of infusion and 12 hours after end of infusion. Due to the high sensibility of Ronopterin to oxidation, no utilizable values could be obtained for Ronopterin and, therefore, the first metabolite, 4-amino-dihydrobiopterin, was used as a surrogate. The mean absolute concentration for the first metabolite of Ronopterin was 1071 ng/mL at the end of the infusion and 476 ng/mL 12 hours later (56% elimination). The mean absolute value for the second Ronopterin metabolite was 52 ng/mL at the end of the infusion and 37 ng/mL 12 hours after end of infusion.

[1] = Ronopterin 17 mg/kg infused for 48 hours

elimination within 12 hours after end of infusion: 56% | mean absolute concentration 12 hours after end of infusion [1]: 476 ng/mL | mean absolute concentration at the end of the infusion [1]: 1071 ng/mL
Compound: C[C@H](O)[C@H](O)C1=Nc2c(N)nc(N)nc2NC1 [4-amino-dihydrobiopterin]
